pEC50, pIC50: −log10 of the molar value. “Also recorded” adds a separate entry of the source. Read-outs that look alike come from different tables or passages of the source.
What was measured:
hNav1.5 sodium channel = hNav1.5 sodium channel (Homo sapiens, UniProt Q14524); assay: Nav1.5 sodium channel whole-cell membrane clamp in CHL cells
From the text: Nav1.5: CHL cells stably expressing hNav1.5 sodium channel was used to record hNav1.5 sodium channel currents by whole-cell membrane clamp technique at room temperature. The glass microelectrodes were made from glass electrode blanks (BF150-86-10, Sutter) by pulling through a puller, and the tip resistance was about 2-5 MΩ after filling the electrode with internal fluid, and the glass microelectrodes were connected to Axopatch 200B (Molecular Devices) membrane clamp amplifier by inserting the glass microelectrodes into the amplifier probe. Clamp voltage and data recording were controlled and recorded by pClamp 10 software via a computer with a sampling frequency of 10 kHz and a filtering frequency of 2 kHz. After obtaining whole-cell recordings, the cells were clamped at −80 mV, given a hyperpolarizing voltage of 200 ms to −120 mV, and then depolarized to −20 mV for 20 ms to evoke a Nav1.5 current. This voltage stimulus was given every 10 s; after the hNav1.5 sodium current was determined to be stabilized (for at least 1 min), begins the dosing process. Concentrations of the sample to be tested were administered continuously starting from low test concentration, and each test concentration was given for 1 min to reach steady state of action or for a maximum of 3 min. A minimum of 3 cells (n≥3) were tested at each concentration of the sample to be tested, and a minimum of 2 cells (n≥2) were tested at each concentration of the positive control.
Extracellular fluid formulation (mM): 140 NaCl, 5 KCl, 1 CaCl2, 1.25 MgCl2, 10 HEPES and 10 Glucose, adjusting the pH to 7.4 with NaOH.
Intracellular fluid formulation (mM): 130 CsF, 10 NaCl, 10 EGTA and 10 HEPES, adjusting the pH to 7.2 with CsOH.

[1] = system: IL-6, IL-1β, CXCL9 mRNA in Raw 264.7 cells; assay: mRNA levels of inflammatory indicators in LPS-induced inflammation model of Raw264.7 cells (Q-PCR); format: cell-based; conditions: 1 μg/ml LPS, 1 μM compound, 16 hours
Experimental: In this example, the effect of the compounds of the present invention on the inflammation level of the LPS-induced inflammation model of Raw 264.7 cells was analyzed by cell viability in combination with inflammatory factors; cell viability was analyzed by CCK-8 assay; and mRNA expression levels of inflammation-related indicators were detected by a real-time quantitative PCR (Q-PCR) method. Raw 264.7 cells were purchased from ATCC; CCK-8 kit was purchased from Meilunbio, item no. MA0218-3; LPS was purchased from Sigma, item no. L2630.
Experimental methods: first, 5*10^4 cells/well Raw 264.7 cells were placed in 12-well plates and incubated overnight. On the second day, 0.1% DMSO was added to the control cells, 1 μg/ml LPS as well as 0.1% DMSO was added to the model group, 1 μg/ml LPS as well as 1 μM of the compounds (oxyacanthine hydrochloride (oxy), 1, 2, tetrandrine (tet), 3, 4, 6, 58) was added to the treatment group, and the 12-well plates were sterilized and incubated in a constant temperature incubator for 16 hours. Cellular mRNA was extracted by lysis using Trizol (Yisheng, 10606ES60) and detected by real-time quantitative PCR after reverse transcription.

[2] = system: carbon tetrachloride-induced acute liver fibrosis; assay: Carbon tetrachloride-induced acute liver fibrosis in mice; format: in vivo, C57BL/6 mice; conditions: for liver fibrosis indicators (Collagen1, α-SMA) by WB assay: 30 mg/kg orally once a day for 6 days, CCl4 0.6 ml/kg i.p. D1, D3, D5; for effect on CCl4-induced acute liver fibrosis in mice: oral administration, 30 mg/kg
Experimental: In this example, the effect of the compounds of the present invention on the carbon tetrachloride-induced acute liver fibrosis model was analyzed by tissue observation, fibrosis indicators, HE and Sirius red staining; the injury of mice was determined by body weight testing and tissue bright-field photographing; the protein expression levels of fibrosis-related indicators were detected by WesternBlot assay; and the fibrosis progression was analyzed by HE and Sirius red staining. C57BL/6 mice were purchased from SLAC; CCl4 was purchased from Sinopharm Chemical Reagent Co, Ltd, item no. 10006464; olive oil was purchased from Sinopharm, item no. 69018028; primary antibody: Collagen was purchased from ARG21965, item no. arigobio; α-smooth muscle actin was purchased from CST, item no. mAb #19245; VIMENTN was purchased from CST, item no. mAb #5741; GAPDH was purchased from Yeasen, item no. mAb #30201ES20.
Solution preparation: CCl4 was diluted with olive oil (1:9, vol:vol) and the compounds were configured with 85% saline+5% DMSO+5% HS-15+5% PEG400 as solvents toa concentration of 3 mg/ml.
Construction of fibrosis model mice: […] C57 mice were randomly divided into […] after 1 week of adaptive feeding: blank group, model group, and 2 treatment groups; with 6 experimental animals in the blank group and 8 experimental animals in each of the remaining 3 groups. Except for the blank group, the remaining three groups were injected intraperitoneally with CCl4 (0.6 ml/kg) in D1, D3, and D5, respectively, and the blank group was injected intraperitoneally with olive oil at the same time. At the same time of modeling, mice in the treatment group were continuously administered by gavage for 6 days, once a day, 2 h after the injection of CC14, and the treatment group was administered orally 30 mg/kg of Compound 2 or Compound 4; mice in the blank group and the model group were given an equal amount of saline by intraperitoneal injection, and the mice were euthanized 24 h after the last administration of CCl4 for test. A portion of the liver tissue was cut to appropriate size and placed in 4% PFA, −80° C. refrigerator for subsequent detection of pathological changes in tissue sample slices, and WB assay, respectively.
Detection methods: 1. After autopsy, liver in situ photos were taken; 2. Liver tissue was retained and lysed using RIPA to extract proteins for WB detection; 3. HE staining as well as Sirius red detection were performed when liver tissue sections were fixed.

[3] = system: A549 lung epithelial cells; assay: Anti TGF-β1-induced fibrosis assay in A549 lung epithelial cells (microscopy, Western Blot); format: cell-based; conditions: 10 ng/ml TGF-β1, 1 μM compound
Experimental: Cell injury was observed by microscopic observation; cell viability was analyzed by CCK-8 assay; and protein expression levels of fibrosis-related indicators were detected by Western Blot method. A549 cells were purchased from ATCC; CCK-8 kit was purchased from Meilunbio, item number MA0218-3; TGF-β1 was purchased from MCE, item number HY-P70543; primary antibodies: Collagen was purchased from ARG21965, item no. arigobio; α-smooth muscle actin was purchased from CST, item no. mAb #19245; VIMENTN was purchased from CST, item no. mAb #5741; GAPDH was purchased from Yeasen, item no. 30201ES20.
Experimental methods: first, 8000 cells/well A549 cells were placed in 96-well plates and incubated overnight. On the second day, 0.1% DMSO was added to the control cells, 10 ng/ml TGF-β1 as well as 0.1% DMSO was added to the model group, 10 ng/ml TGF-β1 as well as 1 μM of the compounds (oxy, 1, 2, tet, 3, 4, 6, 58) was added to the treatment group, and the 96-well plates were sterilized and incubated in a constant temperature incubator for 72 hours. Finally, cell injury and growth were observed using a microscope; the viability of the cells was detected by CCK-8 kit.

[4] = system: 2019 novel coronavirus (SARS-CoV-2) original strain; assay: Replication inhibitory activity against SARS-CoV-2 original strain in Vero E6 cells (qRT-PCR); format: cell-based; conditions: read-out: Inhibition against viral replication of the original strain EC50
HCoV OC43 virus = assay: Inhibition against HCoV OC43 virus replication; format: cell-based, human coronavirus HCoV OC43; conditions: for pEC50: Betacoronavirus 1, OC43

hNav1.5 sodium channel, sequence (Q14524 whole entry): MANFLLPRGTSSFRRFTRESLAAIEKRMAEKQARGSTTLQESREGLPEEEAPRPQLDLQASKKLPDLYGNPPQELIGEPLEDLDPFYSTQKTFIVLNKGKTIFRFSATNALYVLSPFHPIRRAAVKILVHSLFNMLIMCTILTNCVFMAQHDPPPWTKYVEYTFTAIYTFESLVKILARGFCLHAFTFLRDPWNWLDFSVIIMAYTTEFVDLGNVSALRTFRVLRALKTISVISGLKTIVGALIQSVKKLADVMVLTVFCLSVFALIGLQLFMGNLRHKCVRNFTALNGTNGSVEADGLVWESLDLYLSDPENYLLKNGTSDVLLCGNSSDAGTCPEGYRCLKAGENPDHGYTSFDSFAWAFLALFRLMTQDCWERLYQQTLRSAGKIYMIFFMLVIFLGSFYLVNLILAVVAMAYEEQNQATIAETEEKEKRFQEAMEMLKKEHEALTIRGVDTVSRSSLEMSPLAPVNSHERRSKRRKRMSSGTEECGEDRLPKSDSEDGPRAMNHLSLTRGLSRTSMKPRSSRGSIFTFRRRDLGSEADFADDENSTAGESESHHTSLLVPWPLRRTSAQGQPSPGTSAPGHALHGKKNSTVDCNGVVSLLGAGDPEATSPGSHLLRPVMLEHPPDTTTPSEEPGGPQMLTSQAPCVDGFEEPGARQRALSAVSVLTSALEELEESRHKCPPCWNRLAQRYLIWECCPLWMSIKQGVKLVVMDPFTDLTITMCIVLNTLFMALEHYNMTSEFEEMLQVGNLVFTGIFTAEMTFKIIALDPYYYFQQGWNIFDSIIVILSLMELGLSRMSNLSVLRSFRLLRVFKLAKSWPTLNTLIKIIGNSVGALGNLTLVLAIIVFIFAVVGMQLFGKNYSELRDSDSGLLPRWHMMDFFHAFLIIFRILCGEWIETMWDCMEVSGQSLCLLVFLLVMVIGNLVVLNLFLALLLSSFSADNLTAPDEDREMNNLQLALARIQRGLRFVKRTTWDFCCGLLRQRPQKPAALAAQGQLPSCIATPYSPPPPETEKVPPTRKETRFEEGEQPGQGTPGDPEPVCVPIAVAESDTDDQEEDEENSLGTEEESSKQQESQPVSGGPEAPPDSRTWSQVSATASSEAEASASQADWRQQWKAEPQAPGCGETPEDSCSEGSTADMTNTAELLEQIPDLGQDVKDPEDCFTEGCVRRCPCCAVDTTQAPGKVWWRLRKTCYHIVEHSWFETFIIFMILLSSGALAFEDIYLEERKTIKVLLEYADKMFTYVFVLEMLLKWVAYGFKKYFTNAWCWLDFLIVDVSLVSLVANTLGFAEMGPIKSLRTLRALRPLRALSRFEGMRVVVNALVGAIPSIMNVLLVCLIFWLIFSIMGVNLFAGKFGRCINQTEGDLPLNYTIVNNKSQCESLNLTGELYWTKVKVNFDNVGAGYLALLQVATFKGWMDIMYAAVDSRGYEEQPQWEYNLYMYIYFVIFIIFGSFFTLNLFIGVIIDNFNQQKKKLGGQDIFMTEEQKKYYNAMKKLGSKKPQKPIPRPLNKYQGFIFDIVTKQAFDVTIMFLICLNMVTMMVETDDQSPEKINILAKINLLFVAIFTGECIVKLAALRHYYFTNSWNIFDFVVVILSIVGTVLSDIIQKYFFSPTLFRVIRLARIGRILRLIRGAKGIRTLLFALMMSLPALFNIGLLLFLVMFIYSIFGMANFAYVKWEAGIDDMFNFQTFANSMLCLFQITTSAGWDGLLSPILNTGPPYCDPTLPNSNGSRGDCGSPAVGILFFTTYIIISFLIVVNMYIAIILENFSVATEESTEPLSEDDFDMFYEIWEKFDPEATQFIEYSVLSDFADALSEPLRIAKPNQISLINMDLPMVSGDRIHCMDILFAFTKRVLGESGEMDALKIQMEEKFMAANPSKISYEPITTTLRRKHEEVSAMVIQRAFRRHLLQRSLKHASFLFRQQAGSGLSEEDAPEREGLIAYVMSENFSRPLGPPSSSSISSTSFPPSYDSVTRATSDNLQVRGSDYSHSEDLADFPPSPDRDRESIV

| Structure (SMILES) | pIC50 (hNav1.5 sodium channel) | activity against Nav1.5 channels (hNav1.5 sodium channel) | inhibition of inflammatory factors (IL-6, IL-1β, CXCL9 mRNA) in LPS-induced inflammation model [1] | liver fibrosis indicators (Collagen1, α-SMA) by WB assay [2] | effect on CCl4-induced acute liver fibrosis in mice [2] | alleviation of TGF-β1-induced fibrosis in A549 lung epithelial cells (Collagen1, α-SMA by WB) [3] | pEC50 ([4]; Severe acute respiratory syndrome coronavirus 2, Vero C1008, Vero E6 cells, MOI 0.01, 24 h p.i., viral copy number by qRT-PCR) | inhibition against human coronavirus HCoV OC43 (HCoV OC43 virus) | pEC50 (HCoV OC43 virus) | pEC50 ([4]; Severe acute respiratory syndrome coronavirus 2, Vero C1008, 24 h) |
| --- | --- | --- | --- | --- | --- | --- | --- | --- | --- | --- |
| COc1cc2c3cc1Oc1c(OC)c(OC)cc4c1[C@H](Cc1ccc(cc1)Oc1cc(ccc1C(N)=O)C[C@H]3N(C)CC2)N(C)CC4 [Compound 4] | < 4.30 | weakly active | significantly inhibited inflammatory factors; also recorded: significant inhibition | down-regulated | alleviated; also recorded: mitigative effect | alleviated; also recorded: partially alleviate fibrosis | 6.00 to 7.00 | strong inhibition | 5.30 |  |
| CCCCNC(=O)Oc1ccc2cc1Oc1ccc(cc1)C[C@H]1c3c(cc(OC)c(OC)c3Oc3cc4c(cc3OC)CCN(C)[C@@H]4C2)CCN1C [Compound 2] | < 5.00 |  | significantly inhibited inflammatory factors; also recorded: significant inhibition | down-regulated | alleviated; also recorded: mitigative effect | alleviated; also recorded: partially alleviate fibrosis |  | strong inhibition | 5.92 | 6.00 to 7.00 |

— patent US20250296937A1, “CYCLIC BISBENZYL TETRAHYDROISOQUINOLINE COMPOUND, AND PREPARATION METHOD THEREFOR AND USE THEREOF” (Shanghai Institute of Materia Medica, Chinesse Academy of …, priority 2021, published 2025)
